For 24 compounds, EC50 results are on record in BindingDB's records for doi:10.1016/j.bmcl.2019.01.031 (Merck, 2019).

Test [1] is described as follows: Inhibition of NS5A Y93H mutant in HCV genotype 1a assessed as decrease in viral replication.
A short description of test [2]: Inhibition of NS5A in HCV genotype 1a assessed as decrease in viral replication.
Test [3] is described as follows: Inhibition of NS5A in HCV genotype 2b assessed as decrease in viral replication.
A short description of test [4]: Inhibition of NS5A in HCV genotype 3a assessed as decrease in viral replication.
Test [5] is described as follows: Inhibition of NS5A in HCV genotype 1b assessed as decrease in viral replication.
A short description of test [6]: Inhibition of NS5A in HCV genotype 4a assessed as decrease in viral replication.
Test [7] in a line: Inhibition of NS5A in HCV genotype 2a assessed as decrease in viral replication.
The nature of test [8]: Inhibition of NS5A L31V mutant in HCV genotype 1a assessed as decrease in viral replication.

As for `COC(=O)N[C@H](C(=O)N1CCC[C@H]1c1ncc(-c2ccc3c(ccc4c(=O)c5cc(-c6cnc([C@@H]7CCCN7C(=O)[C@@H](NC(=O)OC)C(C)C)[nH]6)ccc5oc43)c2)[nH]1)C(C)C`, the EC50 amounted to 66 nM in test [1] and 0.02 nM in test [2].
Regarding `COC(=O)N[C@H](C(=O)N1CCC[C@H]1c1ncc(-c2ccc3c(c2)Oc2ccc4cc(-c5cnc([C@@H]6CCCN6C(=O)[C@@H](NC(=O)OC)C(C)C)[nH]5)ccc4c2C3(C)C)[nH]1)C(C)C`, the EC50 is 18 nM in test [1], 11 nM in test [3] and 0.0029 nM in test [2].
For `CC[C@@H]1c2ccc(-c3cnc([C@@H]4CCCN4C(=O)[C@@H](NC(=O)OC)C4CCOCC4)[nH]3)cc2Oc2ccc3cc(-c4cnc([C@@H]5CCCN5C[C@@H](NC(=O)OC)C5CCOCC5)[nH]4)ccc3c21`, the EC50 in test [4] amounted to 0.2 nM; in test [1], 0.8 nM; in test [3], 0.3 nM; in test [2], 0.01 nM; in test [5], 0.004 nM; in test [6], 0.01 nM.
On to `COC(=O)N[C@H](C(=O)N1C[C@H](F)C[C@H]1c1ncc(-c2ccc3c(ccc4oc5cc(-c6cnc([C@@H]7C[C@@H](F)CN7C(=O)[C@@H](NC(=O)OC)C(C)C)[nH]6)ccc5c(=O)c43)c2)[nH]1)C(C)C`, for which the EC50 is greater than 1 nM in test [4]; 1.2 nM in test [1]; 90 nM in test [3]; 0.029 nM in test [2]; 0.0045 nM in test [5].
In the same order, the values of `COC(=O)N[C@H](C(=O)N1CCC[C@H]1c1ncc(-c2ccc3c(c2)Oc2ccc4cc(-c5cnc([C@@H]6CCCN6C(=O)[C@@H](NC(=O)OC)C(C)C)[nH]5)ccc4c2[C@@H]3C)[nH]1)C(C)C` are 1.4 nM, 11 nM, 37 nM, 0.0046 nM and 0.0036 nM.
In the case of `COC(=O)N[C@H](C(=O)N1CCC[C@H]1c1ncc(-c2ccc3c(c2)Oc2ccc4cc(-c5cnc([C@@H]6CCCN6C[C@@H](NC(=O)OC)C6CCOCC6)[nH]5)ccc4c2C3(C)C)[nH]1)C1CCOCC1`, the EC50 in test [4] was determined as 0.08 nM; in test [1], 0.7 nM; in test [3] it was 0.3 nM; in test [2], 0.002 nM; in test [5], 0.004 nM; in test [6] it was 0.006 nM.
As to `CCC1c2ccc(-c3cnc([C@@H]4CCCN4C(=O)[C@@H](NC(=O)OC)C(C)C)[nH]3)cc2Oc2ccc(-c3cnc([C@@H]4CCCN4C(=O)[C@@H](NC(=O)OC)C(C)C)[nH]3)cc21` (some centres not stated), the EC50 in test [4] came to 0.07 nM; in test [1], 24 nM; in test [7], 0.005 nM; in test [2], 0.02 nM; in test [5], 0.004 nM.
With `CCN(CC)[C@@H](C(=O)N1C[C@H](F)C[C@H]1c1ncc(-c2ccc3c(ccc4oc5cc(-c6cnc([C@@H]7C[C@@H](F)CN7C(=O)[C@@H](c7ccccc7)N(CC)CC)[nH]6)ccc5c(=O)c43)c2)[nH]1)c1ccccc1`, the EC50 in test [4] is 0.026 nM; in test [1] it was 506 nM; in test [3], 797 nM; in test [2] it was 0.31 nM.
The matching figures for `CC[C@H]1c2ccc(-c3cnc([C@@H]4CCCN4C(=O)[C@@H](NC(=O)OC)C(C)C)[nH]3)cc2Oc2ccc3cc(-c4cnc([C@@H]5CCCN5C(=O)[C@@H](NC(=O)OC)C(C)C)[nH]4)ccc3c21`: 1.1 nM, 12 nM, 0.78 nM and 0.005 nM.
In the case of `COC(=O)N[C@H](C(=O)N1CCC[C@H]1c1ncc(-c2ccc3c(c2)Oc2ccc4cc(-c5cnc([C@@H]6CCCN6C[C@@H](NC(=O)OC)C6CCOCC6)[nH]5)ccc4c2[C@@H]3C)[nH]1)C1CCOCC1`, the EC50 came to 0.06 nM in test [4]; 0.5 nM in test [1]; 0.5 nM in test [3]; 0.005 nM in test [2]; 0.03 nM in test [8]; 0.006 nM in test [5]. The EC50 in test [6] came out at 0.004 nM.
On to `COC(=O)N[C@H](C(=O)N1CCC[C@H]1c1ncc(-c2ccc3c(=O)c4cc(-c5cnc([C@@H]6CCCN6C(=O)[C@@H](NC(=O)OC)C(C)C)[nH]5)ccc4oc3c2)[nH]1)C(C)C`, for which the EC50 in test [1] was 1730 nM; in test [7], 0.1 nM; in test [2] it was 0.01 nM; in test [5], 0.002 nM.
`COC(=O)N[C@H](C(=O)N1CCC[C@H]1c1ncc(-c2ccc3c(ccc4oc5ccc(-c6cnc([C@@H]7CCCN7C(=O)[C@@H](NC(=O)OC)C(C)C)[nH]6)cc5c(=O)c43)c2)[nH]1)C(C)C`: the EC50 in test [4] is greater than 1 nM; in test [1] it was greater than 100 nM; in test [3] it was greater than 100 nM; in test [2] it was 0.2 nM; in test [5], 0.1 nM.
As to `COC(=O)N[C@H](C(=O)N1C[C@H](F)C[C@H]1c1ncc(-c2ccc3c(ccc4oc5cc(-c6cnc([C@@H]7C[C@@H](F)CN7C(=O)[C@@H](NC(=O)OC)C7CCOCC7)[nH]6)ccc5c(=O)c43)c2)[nH]1)C1CCOCC1`, the concentration for a half-maximal effect (EC50) was 5.8 nM in test [4], 0.18 nM in test [1], 3.5 nM in test [3] and 0.084 nM in test [2].
Take `COC(=O)N[C@H](C(=O)N1CCC[C@H]1c1ncc(-c2ccc3c(c2)C(C)c2ccc4cc(-c5cnc([C@@H]6CCCN6C(=O)[C@@H](NC(=O)OC)C(C)C)[nH]5)ccc4c2O3)[nH]1)C(C)C` (some centres not stated): the EC50 turned out to be 49 nM in test [1] and 0.0057 nM in test [2].
As to `CCC1(CC)c2ccc(-c3cnc([C@@H]4CCCN4C(=O)[C@@H](NC(=O)OC)C(C)C)[nH]3)cc2Oc2ccc3cc(-c4cnc([C@@H]5CCCN5C(=O)[C@@H](NC(=O)OC)C(C)C)[nH]4)ccc3c21`, the EC50 in test [4] was determined as 0.58 nM; in test [1], 4.1 nM; in test [3] it was 3.3 nM; in test [2], 0.002 nM.
With `COC(=O)N[C@H](C(=O)N1CCC[C@H]1c1ncc(-c2ccc3c(c2)Oc2ccc4cc(-c5cnc([C@@H]6CCCN6C[C@@H](NC(=O)OC)C6CCOCC6)[nH]5)ccc4c2[C@H]3C)[nH]1)C1CCOCC1`, the 50% effective concentration (EC50) worked out at 0.04 nM in test [4]; 0.4 nM in test [1]; 0.02 nM in test [3]; 0.004 nM in test [2]; 0.03 nM in test [8]; 0.004 nM in test [5]. Besides, the concentration for a half-maximal effect (EC50) in test [6] is 0.009 nM.
For `COC(=O)N[C@H](C(=O)N1CCC[C@H]1c1ncc(-c2ccc3c(ccc4oc5cc(-c6cnc([C@@H]7CCCN7C(=O)[C@@H](NC(=O)OC)C(C)C)[nH]6)ccc5c(=O)c43)c2)[nH]1)C(C)C`, the EC50 in test [4] was greater than 1 nM; in test [1] it was 18 nM; in test [3] it was 14 nM; in test [2] it was 0.003 nM; in test [5] it was 0.003 nM.
As to `COC(=O)N[C@H](C(=O)N1CCC[C@H]1c1ncc(-c2ccc3c(F)c4oc5ccc(-c6cnc([C@@H]7CCCN7C(=O)[C@@H](NC(=O)OC)C(C)C)[nH]6)cc5c(=O)c4cc3c2)[nH]1)C(C)C`, the EC50 in test [4] is greater than 1 nM; in test [1], greater than 100 nM; in test [3], greater than 100 nM; in test [2], greater than 1 nM; in test [5], greater than 1 nM.
As to `CCC1(CC)c2ccc(-c3cnc([C@@H]4CCCN4C(=O)[C@@H](NC(=O)OC)C(C)C)[nH]3)cc2Oc2cc3ccc(-c4cnc([C@@H]5CCCN5C(=O)[C@@H](NC(=O)OC)C(C)C)[nH]4)cc3cc21`, the EC50 in test [4] is 1.1 nM; in test [1], 3.3 nM; in test [3], 4.5 nM; in test [2] it was 0.002 nM.
For the compound `CC[C@H]1c2ccc(-c3cnc([C@@H]4CCCN4C(=O)[C@@H](NC(=O)OC)C4CCOCC4)[nH]3)cc2Oc2ccc3cc(-c4cnc([C@@H]5CCCN5C[C@@H](NC(=O)OC)C5CCOCC5)[nH]4)ccc3c21`, the figures for the concentration giving a half-maximal response (EC50) in test [4], in test [1] and in test [2] were 0.03 nM, 0.2 nM and 0.004 nM, respectively.
For the compound `COC(=O)N[C@H](C(=O)N1CCC[C@H]1c1ncc(-c2ccc3c(ccc4oc5cc(-c6cnc([C@@H]7CCCN7C(=O)[C@@H](NC(=O)OC)C7CCOCC7)[nH]6)ccc5c(=O)c43)c2)[nH]1)C1CCOCC1`, the EC50 came to 0.72 nM in test [4], 2 nM in test [1], 0.48 nM in test [3] and 0.041 nM in test [2].
As to `COC(=O)N[C@H](C(=O)N1CCC[C@H]1c1ncc(-c2ccc3c(c2)Oc2ccc4cc(-c5cnc([C@@H]6CCCN6C(=O)[C@@H](NC(=O)OC)C(C)C)[nH]5)ccc4c2[C@H]3C)[nH]1)C(C)C`, the EC50 was found to be 0.72 nM in test [4]; 7.2 nM in test [1]; 1.9 nM in test [3]; 0.0022 nM in test [2]; 0.0016 nM in test [5].
`CC[C@@H]1c2ccc(-c3cnc([C@@H]4CCCN4C(=O)[C@@H](NC(=O)OC)C(C)C)[nH]3)cc2Oc2ccc3cc(-c4cnc([C@@H]5CCCN5C(=O)[C@@H](NC(=O)OC)C(C)C)[nH]4)ccc3c21`: the EC50 amounted to 1.7 nM in test [4], 15 nM in test [1], 13 nM in test [3] and 0.0027 nM in test [2].
For `COC(=O)N[C@H](C(=O)N1CCC[C@H]1c1nc(-c2ccc3c(c2)O[C@@H](c2ccccc2)n2c-3cc3cc(-c4c[nH]c([C@@H]5CCCN5C(=O)[C@@H](NC(=O)OC)C(C)C)n4)ccc32)c[nH]1)C(C)C` [Elbasvir], the EC50 in test [4] was found to be 0.02 nM; in test [7] it was 0.003 nM; in test [2] it was 0.004 nM; in test [5], 0.003 nM.
